Laboratory results published in ChEMBL document CHEMBL1201862, “PubChem BioAssay data set” (2004).
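Cultured in 96-well plates, cells were exposed to test compound for 48 hours across five concentrations. GI50 = concentration required for 50% inhibition of growth.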 Activity calls are given as the source filed them. Rule as the data show it: active = GI50 up to about 1.1 µM and inactive = higher.

Experiments:
Test in all cases: NCI anticancer screen, dose series, 48 h
786-0 = tested on: 786-0
A549 = tested on: A549
CCRF-CEM = tested on: CCRF-CEM
EKVX = tested on: EKVX
IGROV-1 = tested on: IGROV-1
KM12 = tested on: KM12
MDA-N = tested on: MDA-N
MOLT-4 = tested on: MOLT-4
NCI-H522 = tested on: NCI-H522
OVCAR-3 = tested on: OVCAR-3
OVCAR-4 = tested on: OVCAR-4
RXF 393 = tested on: RXF 393
SK-MEL-28 = tested on: SK-MEL-28
SR = tested on: SR
TK-10 = tested on: TK-10
U-251 = tested on: U-251
UO-31 = tested on: UO-31
COLO 205 = tested on: COLO 205
DU-145 = tested on: DU-145
HCC 2998 = tested on: HCC 2998

Measured: GI50

NC(Cc1ccccc1)P(=O)(O)O (stereo not given)
inactive: 786-0 > 100 µM | A549 > 100 µM | CCRF-CEM > 100 µM | EKVX > 100 µM | IGROV-1 > 100 µM | KM12 > 100 µM | MDA-N > 100 µM | MOLT-4 > 100 µM | NCI-H522 > 100 µM | OVCAR-3 > 100 µM | OVCAR-4 > 100 µM | RXF 393 > 100 µM | SK-MEL-28 > 100 µM | SR > 100 µM | TK-10 > 100 µM | U-251 > 100 µM | UO-31 > 100 µM

COc1cc(C(c2cc3c(cc2O)OCO3)N2CCCC2)cc(OC)c1OC (stereo not given)
inactive: 786-0 14.7 µM | A549 20.4 µM | CCRF-CEM 1.79 µM | COLO 205 11.7 µM | DU-145 19.3 µM | EKVX 14.7 µM | HCC 2998 28.5 µM | IGROV-1 12.4 µM | KM12 18.2 µM | MDA-N 13.4 µM | MOLT-4 3.96 µM | NCI-H522 3.35 µM | OVCAR-3 17.7 µM | OVCAR-4 17 µM | SK-MEL-28 23.3 µM | TK-10 20.2 µM | U-251 16.9 µM | UO-31 14.8 µM

N#CCc1nc(O)c2ccccc2n1
inactive: 786-0 > 100 µM | A549 > 100 µM | COLO 205 98.9 µM | DU-145 > 100 µM | EKVX > 100 µM | HCC 2998 > 100 µM | IGROV-1 > 100 µM | KM12 > 100 µM | MDA-N > 100 µM | MOLT-4 39.7 µM | OVCAR-3 69.7 µM | OVCAR-4 > 100 µM | SK-MEL-28 > 100 µM | TK-10 > 100 µM | U-251 > 100 µM | UO-31 > 100 µM

CN1c2ccccc2C(=O)NC12CCN(Cc1ccccc1)CC2
inactive: 786-0 62.4 µM | A549 56.9 µM | CCRF-CEM 35.6 µM | COLO 205 35.4 µM | DU-145 71.6 µM | EKVX 42.2 µM | HCC 2998 83.6 µM | IGROV-1 69.2 µM | KM12 46 µM | MOLT-4 38.9 µM | OVCAR-4 80.2 µM | RXF 393 > 100 µM | SK-MEL-28 73.8 µM | SR 33.3 µM | TK-10 41 µM | U-251 40.1 µM | UO-31 34.6 µM

CC1(C)C(=O)C2(C#N)CCC1C2 (stereo not given)
inactive: 786-0 > 100 µM | A549 > 100 µM | CCRF-CEM > 100 µM | COLO 205 > 100 µM | DU-145 > 100 µM | EKVX > 100 µM | HCC 2998 > 100 µM | IGROV-1 > 100 µM | KM12 > 100 µM | MDA-N > 100 µM | MOLT-4 > 100 µM | OVCAR-3 > 100 µM | OVCAR-4 > 100 µM | RXF 393 > 100 µM | SK-MEL-28 > 100 µM | TK-10 > 100 µM | U-251 > 100 µM | UO-31 > 100 µM

COP(=O)(OC)OCN(C)CC/C=C(\C)CC/C=C(\C)CCC=C(C)C
inactive: 786-0 15.1 µM | A549 16.9 µM | CCRF-CEM 10.4 µM | COLO 205 16.9 µM | EKVX 29.2 µM | HCC 2998 11.6 µM | IGROV-1 12.5 µM | KM12 15.2 µM | MDA-N 14.9 µM | MOLT-4 13.6 µM | NCI-H522 13.4 µM | OVCAR-3 15.3 µM | OVCAR-4 31.3 µM | RXF 393 16.9 µM | SK-MEL-28 17.3 µM | TK-10 10.3 µM | U-251 17.7 µM | UO-31 14.1 µM

CC1(C)C(CCO)CC1n1cc(I)c(=O)[nH]c1=O (stereo not given)
inactive: 786-0 > 100 µM | A549 > 100 µM | CCRF-CEM > 100 µM | COLO 205 > 100 µM | DU-145 > 100 µM | EKVX > 100 µM | HCC 2998 > 100 µM | KM12 > 100 µM | MDA-N > 100 µM | MOLT-4 > 100 µM | OVCAR-3 > 100 µM | OVCAR-4 > 100 µM | RXF 393 > 100 µM | SK-MEL-28 > 100 µM | TK-10 > 100 µM | U-251 75.3 µM | UO-31 > 100 µM

O=[N+]([O-])/C(C(Cl)=C(Cl)Cl)=C(\Nc1cccc2cccnc12)SCc1ccccc1
inactive: 786-0 21.6 µM | A549 31.3 µM | CCRF-CEM 14.9 µM | COLO 205 18.8 µM | DU-145 21.5 µM | EKVX 21.1 µM | HCC 2998 18.2 µM | KM12 17.2 µM | MDA-N 31.1 µM | MOLT-4 2.21 µM | OVCAR-3 15.5 µM | OVCAR-4 24.4 µM | SK-MEL-28 19 µM | U-251 16.1 µM | UO-31 18.3 µM

O=C(Oc1c(I)ccccc1=O)c1ccc([N+](=O)[O-])cc1
inactive: 786-0 26.9 µM | A549 21.6 µM | CCRF-CEM 22.5 µM | COLO 205 14.7 µM | DU-145 11.7 µM | EKVX 12.4 µM | HCC 2998 23.2 µM | IGROV-1 14.9 µM | KM12 18.9 µM | NCI-H522 17.7 µM | OVCAR-3 13.6 µM | RXF 393 3.08 µM | SK-MEL-28 8.09 µM | SR 4.34 µM | TK-10 30.8 µM | U-251 16.8 µM | UO-31 17.3 µM

CO[C@]12C#CC=CC#C[C@@H](O)[C@]3(CCC1)O[C@@]23c1cccc(O)c1
inactive: 786-0 > 100 µM | A549 > 100 µM | COLO 205 > 100 µM | DU-145 > 100 µM | HCC 2998 > 100 µM | KM12 > 100 µM | MDA-N > 100 µM | MOLT-4 54.8 µM | OVCAR-3 > 100 µM | OVCAR-4 > 100 µM | RXF 393 > 100 µM | SK-MEL-28 > 100 µM | TK-10 > 100 µM | U-251 > 100 µM | UO-31 > 100 µM

O=[N+]([O-])c1ccc2c(c1)S(=O)(=O)N1Cc3ccccc3CCN21
inactive: 786-0 97.5 µM | A549 > 100 µM | CCRF-CEM > 100 µM | COLO 205 > 100 µM | DU-145 > 100 µM | EKVX 13.3 µM | HCC 2998 > 100 µM | IGROV-1 > 100 µM | KM12 > 100 µM | MOLT-4 > 100 µM | NCI-H522 > 100 µM | OVCAR-3 48.8 µM | OVCAR-4 > 100 µM | RXF 393 > 100 µM | SK-MEL-28 > 100 µM | SR > 100 µM | TK-10 > 100 µM | U-251 45.1 µM | UO-31 > 100 µM

CCC12C=CCN3CC[C@]4(C(=C(C(=O)OC)[C@@H]1Nc1ccn(C5OC(COC(C)=O)C(OC(C)=O)C5OC(C)=O)c(=O)n1)Nc1ccccc14)C32 (stereo not given in full)
inactive: 786-0 4.54 µM | A549 5.9 µM | CCRF-CEM 4.59 µM | COLO 205 4.59 µM | EKVX 5.81 µM | HCC 2998 4.3 µM | IGROV-1 5.25 µM | KM12 1.32 µM | MOLT-4 6.58 µM | NCI-H522 3.84 µM | OVCAR-3 4.37 µM | OVCAR-4 1.72 µM | RXF 393 3.12 µM | SK-MEL-28 4.55 µM | SR 3.94 µM | TK-10 4.93 µM | U-251 4.27 µM | UO-31 4.23 µM
